In patent publication US9522184B2, “CD89 activation in therapy” (CSL BEHRING AG, priority 2010, dated 2016):

Legend:
neutrophils = assay: Pan-caspase inhibition of IgA-mediated neutrophil cell death; format: cell-based, human; conditions: qVD-OPh 20 μM, 24 hours, in the presence and absence of LPS and GM-CSF; FIG. 6
From the text: (§1) Antibodies: Anti-CD89 (Clone A59) (both unlabeled and phycoerythrin [PE]-conjugated), and PE-conjugated immunoglobulin G1 (IgG1) isotype control were from BD Biosciences (Basel, Switzerland). Goat anti-mouse IgG (GaM) and unlabelled control IgG1 were obtained from Jackson ImmunoResearch Laboratories (distributed by Milan Analytica, La Roche, Switzerland). Anti-Fas agonistic mAb (CH11) was obtained from LabForce AG (Nunningen, Switzerland). Pooled serum IgA was obtained from CSL Behring AG (Wankdorf, Bern), and was prepared as follows: IgA was purified from human plasma and side-fraction of the IVIg/SCIg manufacturing process by affinity chromatography using CaptureSelect Human IgA resin from BAC (Naarden, Netherlands). […] Cell purity was assessed by staining with Diff-Quik (Baxter, Düdingen, Switzerland) and light microscopy analysis. […] Immunofluorescence: CD89 surface expression was analyzed by flow cytometry following incubation of the cells with saturating concentrations of PE-conjugated anti-CD89 and isotype-matched PE-conjugated control mAbs. […] The caspase inhibitor qVD-OPh (quinoline-Val-Asp-difluorophenoxymethylketone) was used at […] Determination of Cell Death and Apoptosis: Cell death was assessed by uptake of 1 μM ethidium bromide and flow cytometric analysis (FACSCalibur, Becton Dickinson). […]

human neutrophils = assay: CD89 surface expression on neutrophils by flow cytometry after inflammatory stimulus; format: cell-based
From the text: as §1

Row | Molecule | effect on plasma IgA-mediated neutrophil cell death (neutrophils) | CD89 expression on neutrophils (human neutrophils; 8 hours, 100 ng/ml LPS or 10 ng/ml GM-CSF, blood neutrophils of healthy volunteers, FIG. 1A) | time to significant upregulation of CD89 expression (human neutrophils; time course, FIG. 1B)
1 | CC(C)[C@H](NC(=O)c1ccc2ccccc2n1)C(=O)N[C@@H](CC(=O)O)C(=O)COc1c(F)cccc1F [qVD-OPh, quinoline-Val-Asp-difluorophenoxymethylketone] | blocked | – | –
2 | GM-CSF: Cytokine (Novartis Pharma) used as inflammatory stimulus | – | CD89 expression was increased | 4 h
